Data set [1] has as its system amphetamine-induced hyper-locomotion. In words: Reduction of amphetamine-induced hyper-locomotion. The format is in vivo, rat. Conditions: rats pretreated with d-amphetamine 1.5 mg/kg i.p., test compound s.c., last 45 minutes of one hour, range covers 95% of fits. The source says:
In this model, dopaminergic neurotransmission is increased by systemic administration of d-amphetamine at a dose that is sufficiently high to produce a large increase in locomotor activity. The ability of a compound to antagonize this hyperactivity reflects anti-dopaminergic properties, which are part of the dopaminergic stabiliser profile.
Photobeam sensors were spaced 2.5 cm apart.
For most compounds, the evaluation is based on 16 amphetamine pre-treated animals over the dose range 0, 11, 33 and 100 μmol/kg s.c. in one single experiment, with complementary doses in separate experiments. Calculations are based on distance during the last 45 minutes of one hour of measurement. The distances are normalised to amphetamine-control and fitted by least square minimization to the function “End-(End-Control)/(1+(dose/ED50)^Slope)”. […] To estimate confidence levels for the parameters, the fit is repeated 100 times with a random evenly distributed squared weight (0 to 1) for every measurement value. Presented ED50-ranges cover 95% of these values.

Data set [2] is classed as in vitro ADME. Conditions: rat, microsomes, 0.25 h, pH 7.4. As for the experimental part: Rat liver microsomes were isolated as described by Förlin (1980) Effects of Clophen A50, 3-methylcholantrene, pregnenolone-16aq-carbonitrile and Phenobarbital on the hepatic microsomal cytochrome P-450-dependent monooxygenaser system in rainbow trout, salmo garirdneri, of different age and sex. Tox Appl Pharm. 54(3) 420-430, with minor modifications e.g. 3 mL/g liver of a 0.1 M Na/K*PO4 buffer with 0.15 M KCl, pH 7.4, (buffer 1) was added before homogenisation, the homogenate was centrifuged for 20 minutes instead of 15, the supernatant was ultracentrifuged at 100.000 g instead of 105.000 g and the pellet from the ultracentrifugation was resuspended in 1 mL/g liver of 20% v/v 87% glycerol in buffer 1.
1 μL of, 0.2 or 1 mM test substance diluted in water and 10 μL 20 mg/mL rat liver micro-some were mixed with 149 μL 37° C. buffer 1 and the reaction was started by addition of 40 μL 4.1 mg/mL NADPH. After 0 or 15 minutes incubation at 37° C. in a heating block (LAB-LINE, MULTI-BLOK Heater or lab4you, TS-100 Thermo shaker at 700 rpm) the reaction was stopped by addition of 100 μL pure acetonitrile. The protein precipitation was then removed by rejecting the pellet after centrifugation at 10.000 g for 10 minutes (Heraeus, Biofuge fresco) in 4° C. The test compound was analysed using HPLC-MS (Hewlett-Packard 1100MSD Series) with a Zorbax SB-C18 column (2.1*150 mm, 5 μm) using 0.03% formic acid and acetonitrile as mobile phase (gradient) or a Zorbax Eclipse XDB-C18 (3*75 mm, 3.5 μm) using 0.03% acetic acid and acetonitrile as mobile phase (gradient). The 15 min turnover was calculated as the fraction of test compound eliminated after 15 minutes, expressed in percent of 0 min levels, ie 100*[conc test compound at 0 min−concentration at 15 min]/conc at 0 min.
Preparation of liver microsomes was performed as described in Förlin (1980). Protocols for incubation with liver microsomes are referred in Crespi et Stresser (2000), and Renwick et al (2001).

The nature of data set [3]: Oral bioavailability in rat. The format is in vivo. As for the experimental part:
Experiments are performed 24 hours after implantation of arterial and venous catheters. Test compound is administered orally at 12.5 μmol/kg or intravenously at 5 μmol/kg using the venous catheters, n=3 per group. Arterial blood samples are then taken during […] at 0, 3, 9, 27, 60, 120, 180, 240, 300 and, 360 minutes after administration of the test compound. The oral bioavailability was calculated as the ratio of the AUC (Area under curve) obtained after oral administration over the AUC obtained after intravenous administration for each rat. The parameter AUC was calculated according to the following: AUC: the area under the plasma concentration versus time curve from time zero to the last concentration measured (Clast), calculated by the log/linear trapezoidal method.
The levels of test compound are measured by means of liquid chromatography-mass spectrometry (LC-MS). (Hewlett-Packard 1100MSD Series). The module include a quaternary pump system, vacuum degasser, thermostatted autosampler, thermostatted column compartment, diode array detector and API-ES spray chamber. […]
Extractions procedure: Plasma samples (0.25-0.5 ml) were diluted with water to 1 ml, and 60 pmol (100 μl) internal standard (−)-OSU6241 was added. […] The selective ion (MH^+) was monitored for each Example, and MH^+ 296 for (−)-OSU6241 ((3-[3-(ethylsulfonyl)phenyl]-1-propylpiperidine). […]

In data set [4] the test system is Locomotor activity in MK-801 pre-treated rats. In words: Locomotor activity in MK-801 pre-treated rats. The following applies: for Locomotor activity, MK + example 100 μmol/kg: MK-801 0.7 mg/kg i.p. 90 minutes before test compound, recorded 30-60 minutes after administration.
In data set [5] the test system is DOPAC (3,4-dihydroxyphenylacetic acid) in the rat striatum. In words: Increase of DOPAC in the rat striatum after systemic administration (in vivo neurochemistry). The following applies: sc, maximal effects limited to 350-400% of control, range covers 95% of fits, Inactive = inactive at 100 μmol/kg. The source says: After the behavioural activity sessions, the rats were decapitated and their brains rapidly taken out and put on an ice-cold petri-dish. The limbic forebrain, the striatum, the frontal cortex and the remaining hemispheral parts of each rat were dissected and frozen. Each brain part was subsequently analyzed with respect to its content of monoamines and their metabolites.
The monoamine transmitter substances (NA (noradrenaline), DA (dopamine), 5-HT (serotonin)) as well as their amine (NM (normethanephrine), 3-MT (3-methoxytyramine)) and acid (DOPAC (3,4-dihydroxyphenylacetic acid), 5-HIAA (5-hydroxyindoleacetic acid), HVA (homovanillic acid)) metabolites are quantified in brain tissue homogenates by HPLC separations and electrochemical detection.
The analytical method is based on two chromatographic separations dedicated for amines or acids. Two chromatographic systems share a common auto injector with a 10-port valve and two sample loops for simultaneous injection on the two systems. Both systems are equipped with a reverse phase column (Luna C18(2), dp 3 μm, 50*2 mm i.d., Phenomenex) and electrochemical detection is accomplished at two potentials on glassy carbon electrodes (MF-1000, Bioanalytical Systems, Inc.). Via a T-connection the column effluent is passed to the detection cell or to waste. This is accomplished by two solenoid valves, which block either the waste or detector outlet. By not letting the chromatographic front reach the detector, better detection conditions are achieved. The aqueous mobile phase (0.4 ml/min) for the acid system contains Citric Acid 14 mM, Sodium Citrate 10 mM, MeOH 15% (v/v) and EDTA 0.1 mM. Detection potentials relative to Ag/AgCl reference is 0.45 and 0.60V. The aqueous ion pairing mobile phase (0.5 ml/min) for the amine system contains Citric Acid 5 mM, Sodium Citrate 10 mM, MeOH 9% (v/v), MeCN 10.5% (v/v), Decane Sulfonic Acid 0.45 mM, and EDTA 0.1 mM. Detection potentials relative to Ag/AgCl reference is 0.45 and 0.65V.
ED50 values for the increase of DOPAC in striatum are calculated by curve fitting. For most compounds, the evaluation is based on 20 animals over the dose range 0, 3.7, 11, 33 and 100 μmol/kg s.c. in one single experiment. The DOPAC levels are normalised to control and fitted by least square minimization to the function “End-(End-Control)/(1+(dose/ED50)^Slope)”. The four parameters are fitted with the restrictions: ED50>0, 0.5<Slope<3, 350<End<400 or End=200% of control (see table 1). To estimate confidence levels for the parameters, the fit is repeated 100 times with a random evenly distributed squared weight (0 to 1) for every measurement value. Presented ED50-ranges cover 95% of these values.

In data set [6] the target is hERG ion channel (Homo sapiens, UniProt Q12809). In words: Rb efflux through the hERG ion channel. The format is cell-based. Conditions: Rb efflux method. The source says: The substances according to the present invention display a low potency at inhibiting the hERG channel, as measured by IC50 in a Rb+ efflux assay (Development and evaluation of high throughput functional assay methods for hERG potassium channel. Tang W, Kang 1, Wu X, Rampe D, Wang L, Shen H, Li Z, Dunnington D, Garyantes T. J Biomol Screen. 2001 October; 6(5):325-31), indicating a low risk for QT interval prolongation and arrhythmia in man.
Chain of hERG ion channel (Q12809 whole entry): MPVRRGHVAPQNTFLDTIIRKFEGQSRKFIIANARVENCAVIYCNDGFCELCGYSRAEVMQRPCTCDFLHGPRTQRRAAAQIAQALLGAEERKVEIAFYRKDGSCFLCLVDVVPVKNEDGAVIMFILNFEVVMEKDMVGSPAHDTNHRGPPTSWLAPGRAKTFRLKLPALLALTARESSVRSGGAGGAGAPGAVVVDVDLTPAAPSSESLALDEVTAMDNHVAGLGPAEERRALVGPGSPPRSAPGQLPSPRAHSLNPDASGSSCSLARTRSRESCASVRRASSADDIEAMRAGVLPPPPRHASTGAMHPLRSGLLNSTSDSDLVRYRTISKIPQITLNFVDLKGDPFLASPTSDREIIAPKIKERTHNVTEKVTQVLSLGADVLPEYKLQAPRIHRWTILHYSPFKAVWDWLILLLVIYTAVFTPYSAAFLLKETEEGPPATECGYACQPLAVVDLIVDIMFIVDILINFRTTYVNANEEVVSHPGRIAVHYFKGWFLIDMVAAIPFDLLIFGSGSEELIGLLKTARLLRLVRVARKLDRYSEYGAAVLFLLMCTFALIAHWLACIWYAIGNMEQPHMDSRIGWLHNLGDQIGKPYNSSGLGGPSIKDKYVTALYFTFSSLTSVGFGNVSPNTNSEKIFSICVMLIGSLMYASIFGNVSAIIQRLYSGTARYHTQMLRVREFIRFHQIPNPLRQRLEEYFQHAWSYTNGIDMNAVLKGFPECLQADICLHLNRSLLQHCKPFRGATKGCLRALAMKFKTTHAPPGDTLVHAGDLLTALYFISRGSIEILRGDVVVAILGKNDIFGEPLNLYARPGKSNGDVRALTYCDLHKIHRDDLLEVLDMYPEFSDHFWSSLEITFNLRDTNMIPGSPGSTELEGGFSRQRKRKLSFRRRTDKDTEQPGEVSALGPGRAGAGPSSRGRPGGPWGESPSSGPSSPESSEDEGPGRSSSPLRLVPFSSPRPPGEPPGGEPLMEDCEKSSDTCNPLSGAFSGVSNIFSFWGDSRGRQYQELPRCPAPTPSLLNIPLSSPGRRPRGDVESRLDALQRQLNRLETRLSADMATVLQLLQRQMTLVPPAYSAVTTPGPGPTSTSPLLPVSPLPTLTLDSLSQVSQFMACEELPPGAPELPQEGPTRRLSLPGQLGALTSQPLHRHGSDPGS

Where “and” joins values, the source holds several entries; their conditions need not be identical. Equal entries are not always repeated. Where two headings read alike, the source gives them in different places.

Take `CCCN1CCC(c2ccc(F)c(C(F)(F)F)c2)CC1`: the 50% effective dose (ED50) in data set [1] (Rattus norvegicus) was found to be 30 µmol/kg.
`COc1cccc(C2(O)CCN(C)CC2)c1OC`: the “ED50 reduction of amphetamine-induced hyper-locomotion” value in data set [1] is “inactive”.
With `CCCN1CCC(O)(c2cccc(C(F)(F)F)c2F)CC1` [Example 1, 4-[2-FLUORO-3-(TRIFLUOROMETHYL)PHENYL]-1-PROPYLPIPERIDIN-4-OL], in data set [2], the “turnover at 15 minutes” value came out at 27%.
On to `CCN1CCC(O)(c2cccc(C(F)(F)F)c2F)CC1` [Example 3, 4-[2-FLUORO-3-(TRIFLUOROMETHYL)PHENYL]-1-ETHYLPIPERIDIN-4-OL], for which the “turnover at 15 minutes” value in data set [2] was 8%. The same compound showed a bioavailability in data set [3] (in vivo) of roughly 80%.
Regarding `CCCN1CCC(O)(c2ccc(F)c(C(F)(F)F)c2)CC1` [Example 8, 4-[4-FLUORO-3-(TRIFLUOROMETHYL)PHENYL]-1-PROPYLPIPERIDIN-4-OL], the “turnover at 15 minutes” value in data set [2] is 29%. Besides, the bioavailability in data set [3] (plasma, oral 12.5 μmol/kg vs i.v. 5 μmol/kg, AUC ratio, read-out: oral bioavailability) was roughly 29%.
Take `C[C@]12N[C@H](Cc3ccccc31)c1ccccc12` [MK-801, reference compound]: the “Locomotor activity, MK-801 0.7 mg/kg i.p.” value in data set [4] (MK-801 alone, 0.7 mg/kg i.p., recorded 30-60 minutes, one group per experiment, 0.7 mg/kg) is 40367 ± 9127 counts/30 min ± SEM and 32169 ± 10605 counts/30 min ± SEM and 30819 ± 12771 counts/30 min ± SEM and 42061 ± 2219 counts/30 min ± SEM and 58370 ± 3007 counts/30 min ± SEM.
On to `CCCN1CCC(O)(c2cccc(S(C)(=O)=O)c2)CC1` [drawing 51], for which the “ED50 reduction of amphetamine-induced hyper-locomotion” value in data set [1] was “inactive”.
Turning to `CCCN1CCC(O)(c2cccc(C(F)(F)F)c2F)CC1` [drawing 55], the “Locomotor activity, MK + example 100 μmol/kg” value in data set [4] is 17802 ± 6842 (P = 0.09) counts/30 min ± SEM.
The same measure, in the same setting: with `CCN1CCC(O)(c2cccc(C(F)(F)F)c2F)CC1` [drawing 56] the figure was 18307 ± 7375 (P =0.3) counts/30 min ± SEM; with `CCCN1CCC(O)(c2cccc(Cl)c2Cl)CC1` [drawing 57], 9564 ± 4584 (P =0.16) counts/30 min ± SEM; with `CCCN1CCC(O)(c2ccc(F)c(C(F)(F)F)c2)CC1` [drawing 58], 7312 ± 4537 (P =0.0005) counts/30 min ± SEM.
Same read-out and setting: with `COCCN1CCC(O)(c2ccc(Cl)c(C(F)(F)F)c2)CC1` [drawing 59] the figure was 7407 ± 3282 (P =0.00003) counts/30 min ± SEM.
Compound `CCCN1CCC(c2cccc(C(F)(F)F)c2F)CC1` [reference compound] had an ED50 in data set [5] of 9 µmol/kg. The compound further displayed an IC50 in data set [6] of 7.97 µM.
Compound `CCCN1CCC(c2cccc(Cl)c2Cl)CC1` [reference compound] yielded an ED50 in data set [5] of 41 µmol/kg. In data set [6], this compound had an IC50 of 5.66 µM.

The record behind these values is patent US7579474B2, “Substituted piperidines as modulators of dopamine neurotransmission” (NSAB, Filial AF Neurosearch AB, Sverige, priority 2004, dated 2009).
